How the values were obtained:
velvetleaf [1] = assay: Test Example 5: herbicidal effect by foliage application, plastic box (Table 20, symbol M); assay type: in vivo, velvetleaf (Abutilon theophrasti); settings: foliage application, AAH 320 g/ha, three weeks after application
How it was run: (§1)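 Plants sown in sterilized diluvial soil and grown 14 days in a greenhouse at 25° C to 30° C, then sprayed on the foliage with the compound's emulsion diluted in water to a predetermined herbicide amount. Injury to weeds and crops scored three weeks after application on a visual rating scale.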

rice flat sedge = assay: Test Example 3: herbicidal effect by foliage application, Wagner pot (Table 18, symbol E); assay type: in vivo, rice flat sedge (Cyperus iria); settings: 320 g/ha
How it was run: (§2)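 Plants were sown in alluvial soil held under 0.1–0.5 cm standing water and grown 14 days in a greenhouse at 25–30 °C. An emulsifiable formulation, water-diluted to the set dose, was then sprayed onto the foliage, and effects were scored three weeks later using previously defined criteria.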

persian speedwell [2] = assay: Test Example 5: herbicidal effect by foliage application, plastic box (Table 20, symbol R); assay type: in vivo, Persian speedwell (Veronica persica); settings: foliage application, AAH 320 g/ha, three weeks after application
How it was run: as §1

velvetleaf [3] = assay: Test Example 4: herbicidal effect by soil treatment (Table 19, symbol M); assay type: in vivo, velvetleaf (Abutilon theophrasti); settings: AAH 320 g/ha
How it was run: (§3)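 Seeds were sown in sterilized diluvial soil and covered with about 1.5 cm of soil. An emulsion formulation diluted with water to a predetermined herbicide amount was sprayed evenly onto the soil surface. Plants grew in a greenhouse at 25° C. to 30° C., and the effect was scored three weeks after application using criteria from an earlier test.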

chickweed [4] = assay: Test Example 5: herbicidal effect by foliage application, plastic box (Table 20, symbol P); assay type: in vivo, common chickweed (Stellaria media); settings: foliage application, AAH 320 g/ha, three weeks after application
How it was run: as §1

Italian ryegrass [5] = assay: Test Example 4: herbicidal effect by soil treatment (Table 19, symbol K); assay type: in vivo, Italian ryegrass (Lolium multiflorum); settings: AAH 320 g/ha
How it was run: as §3

redroot pigweed [6] = assay: Test Example 5: herbicidal effect by foliage application, plastic box (Table 20, symbol N); assay type: in vivo, redroot pigweed (Amaranthus retroflexus); settings: foliage application, AAH 320 g/ha, three weeks after application
How it was run: as §1

wild oat [7] = assay: Test Example 4: herbicidal effect by soil treatment (Table 19, symbol I); assay type: in vivo, wild oat (Avena fatua); settings: AAH 320 g/ha
How it was run: as §3

persian speedwell [8] = assay: Test Example 4: herbicidal effect by soil treatment (Table 19, symbol R); assay type: in vivo, Persian speedwell (Veronica persica); settings: AAH 320 g/ha
How it was run: as §3

blackgrass [9] = assay: Test Example 5: herbicidal effect by foliage application, plastic box (Table 20, symbol J); assay type: in vivo, blackgrass (Alopecurus myosuroides); settings: foliage application, AAH 320 g/ha, three weeks after application
How it was run: as §1

Chinese sprangletop = assay: Test Example 3: herbicidal effect by foliage application, Wagner pot (Table 18, symbol D); assay type: in vivo, chinese sprangletop (Leptochloa chinensis); settings: 320 g/ha
How it was run: as §2

lambsquarters [10] = assay: Test Example 4: herbicidal effect by soil treatment (Table 19, symbol O); assay type: in vivo, lambsquarters (Chenopodium album); settings: AAH 320 g/ha
How it was run: as §3

barnyard grass [11] = assay: Test Example 5: herbicidal effect by foliage application, plastic box (Table 20, symbol H); assay type: in vivo, barnyard grass (Echinochloa crus-galli); settings: foliage application, AAH 320 g/ha, three weeks after application
How it was run: as §1

redroot pigweed [12] = assay: Test Example 4: herbicidal effect by soil treatment (Table 19, symbol N); assay type: in vivo, redroot pigweed (Amaranthus retroflexus); settings: AAH 320 g/ha
How it was run: as §3

blackgrass [13] = assay: Test Example 4: herbicidal effect by soil treatment (Table 19, symbol J); assay type: in vivo, blackgrass (Alopecurus myosuroides); settings: AAH 320 g/ha
How it was run: as §3

chickweed [14] = assay: Test Example 4: herbicidal effect by soil treatment (Table 19, symbol P); assay type: in vivo, common chickweed (Stellaria media); settings: AAH 320 g/ha
How it was run: as §3

southern crabgrass [15] = assay: Test Example 5: herbicidal effect by foliage application, plastic box (Table 20, symbol F); assay type: in vivo, southern crabgrass (Digitaria ciliaris); settings: foliage application, AAH 320 g/ha, three weeks after application
How it was run: as §1

wild oat [16] = assay: Test Example 5: herbicidal effect by foliage application, plastic box (Table 20, symbol I); assay type: in vivo, wild oat (Avena fatua); settings: foliage application, AAH 320 g/ha, three weeks after application
How it was run: as §1

barnyard grass [17] = assay: Test Example 3: herbicidal effect by foliage application, Wagner pot (Table 18, symbol H); assay type: in vivo, barnyard grass (Echinochloa crus-galli); settings: 320 g/ha
How it was run: as §2

windgrass [18] = assay: Test Example 4: herbicidal effect by soil treatment (Table 19, symbol L); assay type: in vivo, windgrass (Apera spica-venti); settings: AAH 320 g/ha
How it was run: as §3

barnyard grass [19] = assay: Test Example 4: herbicidal effect by soil treatment (Table 19, symbol H); assay type: in vivo, barnyard grass (Echinochloa crus-galli); settings: AAH 320 g/ha
How it was run: as §3

lambsquarters [20] = assay: Test Example 5: herbicidal effect by foliage application, plastic box (Table 20, symbol O); assay type: in vivo, lambsquarters (Chenopodium album); settings: foliage application, AAH 320 g/ha, three weeks after application
How it was run: as §1

green foxtail [21] = assay: Test Example 5: herbicidal effect by foliage application, plastic box (Table 20, symbol G); assay type: in vivo, green foxtail (Setaria viridis); settings: foliage application, AAH 320 g/ha, three weeks after application
How it was run: as §1

green foxtail [22] = assay: Test Example 4: herbicidal effect by soil treatment (Table 19, symbol G); assay type: in vivo, green foxtail (Setaria viridis); settings: AAH 320 g/ha
How it was run: as §3

southern crabgrass [23] = assay: Test Example 4: herbicidal effect by soil treatment (Table 19, symbol F); assay type: in vivo, southern crabgrass (Digitaria ciliaris); settings: AAH 320 g/ha
How it was run: as §3

Italian ryegrass [24] = assay: Test Example 5: herbicidal effect by foliage application, plastic box (Table 20, symbol K); assay type: in vivo, Italian ryegrass (Lolium multiflorum); settings: foliage application, AAH 320 g/ha, three weeks after application
How it was run: as §1

windgrass [25] = assay: Test Example 5: herbicidal effect by foliage application, plastic box (Table 20, symbol L); assay type: in vivo, windgrass (Apera spica-venti); settings: foliage application, AAH 320 g/ha, three weeks after application
How it was run: as §1

Structure (SMILES): Cc1nn(C)c(=O)c(-c2c(-c3ccccc3OCC(F)F)sc3ccccc23)c1O [1-116]
- M: velvetleaf, herbicidal effect (velvetleaf [1]): 5 (Herbicidal rate of 90% or more (almost completely withered))
- herbicidal effect on E (rice flat sedge), rating 0-5 (rice flat sedge): 4 (Herbicidal rate of 70% or more and less than 90%)
- R: persian speedwell, herbicidal effect (persian speedwell [2]): 5 (Herbicidal rate of 90% or more (almost completely withered))
- M: velvetleaf, herbicidal effect rating (velvetleaf [3]): 2 (Herbicidal rate of 20% or more and less than 40%)
- P: chickweed, herbicidal effect (chickweed [4]): 5 (Herbicidal rate of 90% or more (almost completely withered))
- K: Italian ryegrass, herbicidal effect rating (Italian ryegrass [5]): 0 (Herbicidal rate of 5% or less (almost no effect))
- N: redroot pigweed, herbicidal effect (redroot pigweed [6]): 5 (Herbicidal rate of 90% or more (almost completely withered))
- I: wild oat, herbicidal effect rating (wild oat [7]): 1 (Herbicidal rate of 5% or more and less than 20%)
- R: persian speedwell, herbicidal effect rating (persian speedwell [8]): 5 (Herbicidal rate of 90% or more (almost completely withered))
- J: blackgrass, herbicidal effect (blackgrass [9]): 4 (Herbicidal rate of 70% or more and less than 90%)
- herbicidal effect on D (Chinese sprangletop), rating 0-5 (Chinese sprangletop): 2 (Herbicidal rate of 20% or more and less than 40%)
- O: lambsquarters, herbicidal effect rating (lambsquarters [10]): 3 (Herbicidal rate of 40% or more and less than 70%)
- H: barnyard grass, herbicidal effect (barnyard grass [11]): 4 (Herbicidal rate of 70% or more and less than 90%)
- N: redroot pigweed, herbicidal effect rating (redroot pigweed [12]): 5 (Herbicidal rate of 90% or more (almost completely withered))
- J: blackgrass, herbicidal effect rating (blackgrass [13]): 1 (Herbicidal rate of 5% or more and less than 20%)
- P: chickweed, herbicidal effect rating (chickweed [14]): 5 (Herbicidal rate of 90% or more (almost completely withered))
- F: southern crabgrass, herbicidal effect (southern crabgrass [15]): 4 (Herbicidal rate of 70% or more and less than 90%)
- I: wild oat, herbicidal effect (wild oat [16]): 4 (Herbicidal rate of 70% or more and less than 90%)
- herbicidal effect on H (barnyard grass), rating 0-5 (barnyard grass [17]): 5 (Herbicidal rate of 90% or more (almost completely withered))
- L: windgrass, herbicidal effect rating (windgrass [18]): 3 (Herbicidal rate of 40% or more and less than 70%)
- H: barnyard grass, herbicidal effect rating (barnyard grass [19]): 0 (Herbicidal rate of 5% or less (almost no effect))
- O: lambsquarters, herbicidal effect (lambsquarters [20]): 4 (Herbicidal rate of 70% or more and less than 90%)
- G: green foxtail, herbicidal effect (green foxtail [21]): 5 (Herbicidal rate of 90% or more (almost completely withered))
- G: green foxtail, herbicidal effect rating (green foxtail [22]): 0 (Herbicidal rate of 5% or less (almost no effect))
- F: southern crabgrass, herbicidal effect rating (southern crabgrass [23]): 0 (Herbicidal rate of 5% or less (almost no effect))
- K: Italian ryegrass, herbicidal effect (Italian ryegrass [24]): 2 (Herbicidal rate of 20% or more and less than 40%)
- L: windgrass, herbicidal effect (windgrass [25]): 5 (Herbicidal rate of 90% or more (almost completely withered))
